Measured values: patent US11980681B2, “Material for demineralizing dentin collagen fibril, preparation method and application thereof” (THE FOURTH MILITARY MEDICAL UNIVERSITY OF CHINESE PEOPLE'S …, priority 2019, dated 2024)

What was measured:
[1] = test system: human dental pulp stem cells (hDPSCs); assay: Cytotoxicity test: mitochondrial dehydrogenase activity and intracellular DNA content; format: cell-based; details: hDPSCs exposed to 32% phosphoric acid, 0.1M EDTA or 25 mg/ml GCE; PBS control
From the text: (§1) FIG. 5A detects the mitochondrial dehydrogenase activity (Mito.) of human dental pulp stem cells (hDPSCs) that had been exposed to different dentin demineralizing agents.
FIG. 5B detects intracellular DNA content of human dental pulp stem cells that had been exposed to different dentin demineralizing agents.
as §1, with “agents. FIG. 5B detects intracellular DNA content of human dental pulp stem cells that had been exposed to different dentin demineralizing agents.” for “agents.”

[2] = Degree of degradation of dentin collagen in dentin mixed layers; details: ranking among 32% phosphoric acid, EDTA and GCE
Experimental: FIG. 4B compares degree of degradation of dentin collagen in each group of the dentin mixed layers.
In this experiment, the inhibitory effect of GCE on soluble MMP-9 was evaluated using purified recombinant human MMP-9 (rhMMP-9) and a generic MMP assay kit (Sensolyte, AnaSpec Inc., Fremont, CA, USA). The MMP assay kit contains an intact thiopeptolide that is cleaved by specific MMPs to release a sulfhydryl group that produces colored 2-nitro-5-thiobenzoic acid with Ellman's reagent. A series of EDTA and GCE solutions (50 mg/mL, 25 mg/mL, 10 mg/mL, 5 mg/mL, 1 mg/mL) were used as test agents and 32% H3PO4 was used for comparison. […] Readings were taken after 60 min of incubation at 37° C. Absorbance was measured at 412 nm using a 96-well plate reader (VICTOR Nivo™, PerkinElmer). Background absorbance was determined from the “substrate control” wells and subtracted from the readings of the other wells containing the thiopeptolide substrate. The potency of rhMMP-9 inhibition by GM6001, the kit-included MMP inhibitor, and the […] concentrations of EDTA or GCE were expressed as percentages of the adjusted absorbance of the “positive control”. Inhibition of MMP (%) was calculated as 1−([A]test compound group−[A]test compound control)/([A]positive control−[A]substrate control), where [A] represents the absorbance values of the wells. […]

[3] = Transmission electron microscopy of mineralized dentin treated with demineralizing agents; details: 0.1M EDTA for 60 seconds or 25 mg/ml glycol chitosan-EDTA for 30 seconds
Experimental: For wet bonding, the conditioned specimen was kept moist by removing excess water from the dentin surface with lint-free tissues prior to bonding. For dry bonding, the conditioned dentin was air-dried with […] moisture-free air for 5 sec. The dentin bond strength was measured by the following methods. After treatment with various demineralizing agents and rinsing with deionized water, each tooth segment was bonded with Adper Single Bond 2 (3M ESPE; St Paul, MN, USA). After bonding, a 4-mm thick of resin composite (Z250, 3M ESPE) was placed over the adhesive-coated dentin surface using incremental light-curing. The bonded teeth with composite build-ups were stored in water for 24 hours at 37° C. Each specimen was subsequently sectioned to 0.9 mm×0.9 mm×7 mm long sticks, each with the resin-dentin interface in the middle of the stick. Each stick was attached with cyanoacrylate glue (Zapit; Dental Ventures of America, Corona, CA, USA) to a testing jig and stressed to failure under tension in a universal testing machine (Vitrodyne V1000; Liveco Inc., Burlington, VT, USA) at a cross-head speed of 1 mm/min. The tensile load at failure was recorded and divided by the measured cross-sectioned area of each beam to yield the tensile bond strength. The mean bond strength value derived from the 4 beams of each tooth was used to represent the tensile bond strength of that particular tooth. […]

[4] = Rate of chelating Ca2+ from mineralized dentin, inductively coupled plasma-atomic emission spectrometry; details: 0.1M EDTA vs EDTA cross-linked glycol chitosan at 50, 25 and 10 mg/ml

degradation rate of collagen [2]	Structure (SMILES)	cell viability [1]	extent of dentin demineralization in TEM image [3]	demineralization effect (rate of chelating Ca2+) [4]
followed by EDTA	O=C(O)CN(CCN(CC(=O)O)CC(=O)O)CC(=O)O [EDTA, ethylenediaminetetraacetic acid]	followed by the EDTA group	complete demineralization in a part of area and partial demineralization in some areas	strongest demineralization effect
highest	O=P(O)(O)O [phosphoric acid]	lowest	–	–
